Measurements: patent publication US20140045908A1, “HSP90 INHIBITORY COMPOUNDS IN TREATING JAK/STAT SIGNALING-MEDIATED CANCERS” (SYNTA PHARMACEUTICALS CORP., priority 2011, published 2014)
pIC50: −log10 of the molar value.

Columns and labels:
Assay type in all cases: cell-based, human
[1] = system: JAK/STAT signaling in SET-2 cells; experiment: Western blot of JAK/STAT signaling in SET-2 cells; conditions: 24 h
Experimental: SET-2 cells were dosed with the indicated concentrations of ganetespib or 17-AAG for 24 h and analyzed to determine JAK/STAT protein and target levels using the antibodies indicated.
(§1) Cells were disrupted in lysis buffer (CST) and solubilized in 2% SDS. Xenograft tumors (average volume of 100-200 mm3) were excised, cut in half, and flash frozen in liquid nitrogen. Each tumor fragment was lysed in 0.5 mL of lysis buffer using a FastPrep-24 homogenizer and Lysing Matrix A (MP Biomedicals, Solon, Ohio, USA) and lysates clarified by centrifugation. Equal amounts of proteins were resolved by SDS-PAGE and immunoblotted with indicated antibodies. The antigen-antibody complex was visualized and quantitated using an Odyssey system (LI-COR, Lincoln, Nebr., USA).

[2] = system: JAK/STAT target and cell cycle gene expression in HEL92.1.7 cells; experiment: RNA expression profiling (RT-PCR, Affymetrix) in HEL92.1.7 cells; conditions: 4 hour P6 (1000 nM), 24 hour ganetespib (250 nM)
Experimental: HEL92.1.7 cells were treated with DMSO, P6 (100 or 1000 nM) or ganetespib (25 or 250 nM) for 4 h or 24 h, and total RNA extracted using Trizol (Invitrogen). RNA was purified with the RNeasy kit (Qiagen, Hilden, Germany) and converted to cDNA via an iScript kit (BioRad, Hercules, Calif., USA). Oligonucleotide primers were purchased from SABiosciences (Frederick, Md., USA). PCR was done with iQ SYBR Green Supermix (Bio-Rad), and levels of the tested genes were normalized to HPRT expression using the comparative Ct method.
Biotinylated aRNA was generated by in vitro transcription using Affymetrix GeneChip Expression IVT labeling kit (Affymetrix, Santa Clara, Calif., USA). Fifteen micrograms of labeled aRNA was fragmented and hybridized to Affymetrix GeneChip Human Genome U133 Plus 2 arrays and scanned using a GeneChip Scanner (Affymetrix). Array data were analyzed with the Affymetrix Expression Console Software utilizing the MASS algorithm. In order to generate a threshold for identifying probe sets that have large differences between 1000 nM P6 (4 h) and 250 nM ganetespib (24 h) arrays and their controls in the absence of treatment replicates, data from four control arrays (DMSO only; two at 4 h, and two at 24 h) were used to create an expression level dependent fold-difference envelope that reflects the increasing measurement variability as expression level decreases. This envelope, used in lieu of a fixed fold-difference criteria, was formed by identifying the xth percentile expression-level difference (where x was large, typically 99.9%) at each mean expression level bin. To achieve this, data were used from the six possible comparisons from the four DMSO-only arrays. The resulting, smoothed threshold fold-difference envelope was then applied to the two compound-treated/control array pairs to identify those probe-sets that have large expression level differences between treatment and control. For hierarchical analysis, genes with greater than two fold changes in expression with 250 nM ganetespib were clustered using established algorithms in Cluster (49) and a subset visualized by TreeView.

[3] = system: JAK2/STAT3 signaling in HCC827 cells; experiment: Western blot of constitutive and IL-6 induced STAT3 activity in HCC827 cells
Experimental: HCC827 lung cancer cells were treated with increasing concentrations of ganetespib or P6 for 24 h followed by a 15 min stimulation with or without 50 ng/ml human recombinant IL-6. The levels of JAK2, total and phospho-STAT3, and PIM2 were analyzed by western blot. GAPDH is included as a loading control.
as §1

[4] = system: JAK2 dependent signaling in HEL92.1.7 cells; experiment: Western blot of JAK/STAT signaling in HEL92.1.7 cells; conditions: 250 nM ganetespib or 1000 nM P6
Experimental: FIG. 2 compares the more durable ganetespib durable inhibition of JAK/STAT signaling to P6. HEL92.1.7 cells were cultured in the presence of 250 nM Ganetespib or 1000 nM P6 and harvested at the indicated time points. The levels of JAK2, phosphorylated and total STAT3 and STAT5, phospho-AKT, phospho-ERK and GAPDH were determined by western blot.
as §1

HEL92.1.7 cells [5] = experiment: Cell viability assay (AlamarBlue, 72 h)
Experimental: All cell lines were obtained from the ATCC (Rockville, Md., USA), with the exception of SET-2 cells which were purchased from the German Collection of Microorganisms and Cell Cultures (DSMZ, Germany). Cells were maintained and cultured according to standard techniques at 37° C. in 5% (v/v) CO2 using culture medium recommended by the supplier.
Cells were grown in 96-well plates based on optimal growth rates determined empirically for each line. Twenty-four hours after plating, cells were dosed with the indicated compound or DMSO (0.3%) for 72 h. AlamarBlue (Invitrogen, Carlsbad, Calif., USA) was added (10% v/v) to the cells, and the plates were incubated for 3 h and subjected to fluorescence detection (Ex=545 nm, Em=600 nm) in a SpectraMax Plus 384 microplate reader (Molecular Devices, Sunnyvale, Calif., USA). Data are normalized to percent of control, with IC50 values based on a four-parameter logistic dose response curve (model 205) using XLfit version 5.1 from IDBS (Guildford, U.K.).

HEL92.1.7 cells [6] = experiment: Flow cytometry cell cycle analysis
Experimental: HEL92.1.7 cells were plated at 0.5×10^6 cells/mL and treated as indicated. Cells were harvested and stained with propidium iodide using the BD Cycle TEST PLUS Reagent Kit (BD Biosciences, San Jose, Calif., USA) according to the manufacturer's instructions. Twenty thousand cells were analyzed for their DNA content using a FACS Caliber cytometer (BD Biosciences).

[7] = system: Cdk1, phospho-Chk2, cyclins in HEL92.1.7 cells; experiment: Western blot of cell cycle proteins in HEL92.1.7 cells; conditions: ganetespib 250 nM or P6 1000 nM, 24-48 h
Experimental: Cells were harvested at the indicated time points and the levels of total and phospho-Cdk1, phospho-Chk2 and GAPDH analyzed by western blot.
FIG. 12 illustrates the effects of ganetespib on JAK/STAT and cell cycle protein expression. HEL92.1.7 cells were treated with 100 nM ganetespib and subject to western blot to determine the levels of Cdk1, cyclin B1, cyclin A1, JAK2, total and phospho-STAT3, and GAPDH at hourly intervals over an 11 h time course.
as §1

[8] = 24 h, absence of external ligand

Row | SMILES | fold less potent than ganetespib, effects on JAK/STAT signaling [1] | expression of JAK/STAT target genes (SOCS and PIM family members) [2] | JAK2 expression [3, 8] | constitutive STAT3 activity [3, 8] | JAK/STAT signaling stimulated by exogenous IL-6 ([3]; 24 h then 15 min 50 ng/ml IL-6) | JAK2 dependent signaling (phospho-STAT3, phospho-STAT5, ERK signaling) [4] | fold less potency than ganetespib, loss of cellular viability (HEL92.1.7 cells [5]) | pIC50 (HEL92.1.7 cells [5]; 72 h, Alamar blue, read-out: IC50, loss of cellular viability) | cell cycle distribution (HEL92.1.7 cells [6]) | Cdk1 protein expression [7]
1 | C=CCNC1=C2C[C@@H](C)C[C@H](OC)[C@H](O)[C@@H](C)/C=C(\C)[C@H](OC(N)=O)[C@@H](OC)/C=C\C=C(/C)C(=O)NC(=CC1=O)C2=O [17-AAG, reference compound] | 200 fold |  |  |  |  |  |  |  |  | 
2 | CC(C)(C)c1nc2c3cc[nH]c(=O)c3c3cc(F)ccc3c2[nH]1 [P6, reference compound] |  | downregulated | did not influence total JAK2 protein levels | downregulated constitutive STAT3 activity | blocked JAK/STAT signaling stimulation | blocked JAK2 dependent signaling | 30 fold | 6.21 | accumulation in G1 phase only, without the loss of S phase or G2/M arrest | no effect on Cdk1 expression
